Assay results published in US4472409A, “2-Pyridylmethyl thio(sulfinyl)benzimidazoles with gastric acid secretion inhibiting effects” (Byk Gulden Lomberg Chemische Fabrik Gesellschaft mit …, priority 1981, dated 1984).

How the values were obtained:
[1] = tested on: gastric secretion (HCl-secretion of the rat stomach); assay: Gastric secretion inhibition (HCl-secretion over 4 hours) in the Shay rat; format: in vivo; conditions: for Gastric secretion (rat), inhibition in % of HCl-secretion: 4 hours; for Gastric secretion (rat), ED25 / ED25: dose reducing HCl secretion (sum 4 hours) by 25% vs control; for ED25 / ED50: Rattus norvegicus, po
Protocol: (§1) The antiulcerogenic action was tested in accordance with the method using the so-called Shay rat: Rats (female, 180 to 200 g, 4 animals per cage on a high grid) which had been fasted for 24 hours were subjected to ulcer provocation by pylorus ligature (under diethyl ether anaesthesia) and oral administration of 100 mg/10 ml/kg of acetylsalicyclic acid. The substances to be tested are administered orally (10 ml/kg) 1 hour before the pylorus ligature. The wound is closed by means of Michel clamps. 4 hours thereafter, the animals are killed under ether anaesthesia by atlas dislocation, and the stomach is removed. The stomach is opened longitudinally and fixed to a cork tile after the amount of gastric juice secreted [volume, and its hydrochloric acid content (titration with sodium hydroxide solution)] has been determined, the number and size (=diameter) of ulcers present are determined with a stereomicroscope with 10-fold magnification. The product of the degree of severity (according to the following rating scale) and the number of ulcers serves as the individual ulcer index. The reduction in the average ulcer index of each treated group compared with that of the control group (=100%) serves as a measure of the antiulcerogenic effect. The ED25 and the ED50 designate the doses which reduce the average ulcer index and the gastric secretion by 25 and 50%.

[2] = tested on: gastric ulcers provoked by a pylorus ligature (Shay rat); assay: Protective action on the stomach: antiulcerogenic test in the Shay rat (pylorus ligature + oral 100 mg/kg acetylsalicylic acid), reduction of ulcer index; format: in vivo; conditions: for Protective action on the stomach (rat), reduction in the ulcer index: 1 hour before pylorus ligature; for Protective action on the stomach (rat), ED25 / ED25: dose reducing ulcer index by 25% vs control; for Protective action on the stomach (rat), ED25 / Protective action on the stomach (rat), ED50 / ED25 / ED50: logarithmic interpolation; for Protective action on the stomach (rat), ED50 / ED50: dose reducing ulcer index by 50% vs control; for ED25 / ED50: Rattus norvegicus, po
Protocol: The effect of the compounds according to the invention on the formation of gastric ulcers provoked by a pylorus ligature (4 hours, so-called Shay rat) and oral administration of 100 mg/kg acetylsalicylic acid and on the inhibition of gastric secretion in rats during 4 hours is shown in the following table:
as §1, with “index.” for “index. The reduction in the average ulcer index of each treated group compared with that of the control group (=100%) serves as a measure of the antiulcerogenic effect. The ED25 and the ED50 designate the doses which reduce the average ulcer index and the gastric secretion by 25 and 50%.”
The reduction in the average ulcer index of each treated group compared with that of the control group (=100%) serves as a measure of the antiulcerogenic effect. The ED25 and the ED50 designate the doses which reduce the average ulcer index and the gastric secretion by 25 and 50%.

[3] = dose reducing HCl secretion (sum 4 hours) by 50% vs control, logarithmic interpolation

In the case of “4-Trifluoromethyl-2-[(4-methoxy-2-pyridylmethyl)sulfinyl]-(1H)-benzimidazole [Example 1]”, the “Gastric secretion (rat), inhibition in % of HCl-secretion” value ([1]; dose 0.1 mg/kg p.o.) is reported as 5%, the “Gastric secretion (rat), inhibition in % of HCl-secretion” value ([1]; dose 0.3 mg/kg p.o.) is reported as 9% and the “Gastric secretion (rat), inhibition in % of HCl-secretion” value ([1]; dose 1.0 mg/kg p.o.) is reported as 15%. The “Gastric secretion (rat), inhibition in % of HCl-secretion” value ([1]; dose 3.0 mg/kg p.o.) was 22%, the “Gastric secretion (rat), ED25” value ([1]; logarithmic interpolation) was ≥ 3.0 mg/kg, p.o and the “Protective action on the stomach (rat), reduction in the ulcer index” value ([2]; dose 0.1 mg/kg p.o.) was “+1%”. The “Protective action on the stomach (rat), reduction in the ulcer index” value ([2]; dose 0.3 mg/kg p.o.) was 12%, the “Protective action on the stomach (rat), reduction in the ulcer index” value ([2]; dose 1.0 mg/kg p.o.) was 27% and the “Protective action on the stomach (rat), reduction in the ulcer index” value ([2]; dose 3.0 mg/kg p.o.) was 58%. For the same molecule, the “Protective action on the stomach (rat), ED25” value [2] was 0.9 mg/kg, p.o and the “Protective action on the stomach (rat), ED50” value [2] was 2.3 mg/kg, p.o.
For “5-Trifluoromethyl-2-[(4-methoxy-3,5-dimethyl-2-pyridylmethyl)thio]-(1H)-benzimidazole [Example 8]”, the “Gastric secretion (rat), inhibition in % of HCl-secretion” value ([1]; dose 1.0 mg/kg p.o.) was 12%, the “Gastric secretion (rat), inhibition in % of HCl-secretion” value ([1]; dose 3.0 mg/kg p.o.) was 50% and the “Gastric secretion (rat), ED25” value ([1]; logarithmic interpolation) was 1.5 mg/kg, p.o. The “Gastric secretion (rat), ED50” value [1, 3] was 3.0 mg/kg, p.o, the “Protective action on the stomach (rat), reduction in the ulcer index” value ([2]; dose 1.0 mg/kg p.o.) was 50% and the “Protective action on the stomach (rat), reduction in the ulcer index” value ([2]; dose 3.0 mg/kg p.o.) was 63%. For the same molecule, the “Protective action on the stomach (rat), ED25” value [2] was < 1.0 mg/kg, p.o and the “Protective action on the stomach (rat), ED50” value [2] was 1.0 mg/kg, p.o.
For `COc1ccnc(C[S+]([O-])c2nc3cc(C(F)(F)F)ccc3[nH]2)c1` (stereo not drawn) [Serial No. 2, 5-Trifluoromethyl-2-[(4-methoxy-2-pyridylmethyl)sulfinyl]-(1H)-benzimidazole], the ED25 ([1]; logarithmic interpolation) was 0.35 mg/kg, the ED50 [1, 3] was 0.75 mg/kg and the “Gastric secretion (rat), inhibition in % of HCl-secretion” value ([1]; dose 0.1 mg/kg p.o.) was 0%. The “Gastric secretion (rat), inhibition in % of HCl-secretion” value ([1]; dose 0.3 mg/kg p.o.) was 18%, the “Gastric secretion (rat), inhibition in % of HCl-secretion” value ([1]; dose 1.0 mg/kg p.o.) was 60% and the “Gastric secretion (rat), inhibition in % of HCl-secretion” value ([1]; dose 3.0 mg/kg p.o.) was 84%. The ED25 [2] was 0.24 mg/kg, the ED50 [2] was 0.45 mg/kg and the “Protective action on the stomach (rat), reduction in the ulcer index” value ([2]; dose 0.1 mg/kg p.o.) was 6%. The “Protective action on the stomach (rat), reduction in the ulcer index” value ([2]; dose 0.3 mg/kg p.o.) was 29%, the “Protective action on the stomach (rat), reduction in the ulcer index” value ([2]; dose 1.0 mg/kg p.o.) was 88% and the “Protective action on the stomach (rat), reduction in the ulcer index” value ([2]; dose 3.0 mg/kg p.o.) was 100%.
`COc1ccnc(C[S+]([O-])c2nc3cc(C(F)(F)F)ccc3[nH]2)c1C` (stereo not drawn) [Serial No. 3, 5-Trifluoromethyl-2-[(4-methoxy-3-methyl-2-pyridylmethyl)sulfinyl]-(1H)--benzimidazole] was tested, and the ED25 ([1]; logarithmic interpolation) was < 0.3 mg/kg, the ED50 [1, 3] was 0.4 mg/kg and the “Gastric secretion (rat), inhibition in % of HCl-secretion” value ([1]; dose 0.3 mg/kg p.o.) was 40%. The “Gastric secretion (rat), inhibition in % of HCl-secretion” value ([1]; dose 1.0 mg/kg p.o.) was 88%, the “Gastric secretion (rat), inhibition in % of HCl-secretion” value ([1]; dose 10.0 mg/kg p.o.) was 92% and the ED25 [2] was 0.3 mg/kg. The ED50 [2] was 0.45 mg/kg, the “Protective action on the stomach (rat), reduction in the ulcer index” value ([2]; dose 0.3 mg/kg p.o.) was 25% and the “Protective action on the stomach (rat), reduction in the ulcer index” value ([2]; dose 1.0 mg/kg p.o.) was 98%. For the same molecule, the “Protective action on the stomach (rat), reduction in the ulcer index” value ([2]; dose 10.0 mg/kg p.o.) was 100%.
With `COc1c(C)cnc(C[S+]([O-])c2nc3cc(C(F)(F)F)ccc3[nH]2)c1C` (stereo not drawn) [Serial No. 4, 5-Trifluoromethyl-2-[(4-methoxy-3,5-dimethyl-2-pyridylmethyl)sulfinyl]-(1H)-benzimidazole] the ED25 ([1]; logarithmic interpolation) was 0.48 mg/kg, the ED50 [1, 3] was 1 mg/kg and the “Gastric secretion (rat), inhibition in % of HCl-secretion” value ([1]; dose 0.1 mg/kg p.o.) was “+5%”. For the same molecule, the “Gastric secretion (rat), inhibition in % of HCl-secretion” value ([1]; dose 0.3 mg/kg p.o.) was 10%, the “Gastric secretion (rat), inhibition in % of HCl-secretion” value ([1]; dose 1.0 mg/kg p.o.) was 50% and the “Gastric secretion (rat), inhibition in % of HCl-secretion” value ([1]; dose 3.0 mg/kg p.o.) was 75%. For the same molecule, the ED25 [2] was 0.24 mg/kg, the ED50 [2] was 0.55 mg/kg and the “Protective action on the stomach (rat), reduction in the ulcer index” value ([2]; dose 0.1 mg/kg p.o.) was 1%. For the same molecule, the “Protective action on the stomach (rat), reduction in the ulcer index” value ([2]; dose 0.3 mg/kg p.o.) was 30%, the “Protective action on the stomach (rat), reduction in the ulcer index” value ([2]; dose 1.0 mg/kg p.o.) was 69% and the “Protective action on the stomach (rat), reduction in the ulcer index” value ([2]; dose 3.0 mg/kg p.o.) was 89%.
`COc1ccnc(CSc2nc3cc(C(F)(F)F)ccc3[nH]2)c1` [Serial No. 6, 5-Trifluoromethyl-2-[(4-methoxy-2-pyridylmethyl)thio]-(1H)-benzimidazole] was tested, and the ED25 ([1]; logarithmic interpolation) was 1.2 mg/kg, the ED50 [1, 3] was 2 mg/kg and the “Gastric secretion (rat), inhibition in % of HCl-secretion” value ([1]; dose 1.0 mg/kg p.o.) was 15%. For the same molecule, the “Gastric secretion (rat), inhibition in % of HCl-secretion” value ([1]; dose 3.0 mg/kg p.o.) was 70%, the ED25 [2] was ~1 mg/kg and the ED50 [2] was 1.4 mg/kg. For the same molecule, the “Protective action on the stomach (rat), reduction in the ulcer index” value ([2]; dose 1.0 mg/kg p.o.) was 27% and the “Protective action on the stomach (rat), reduction in the ulcer index” value ([2]; dose 3.0 mg/kg p.o.) was 97%.
For `COc1ccnc(CSc2nc3cc(C(F)(F)F)ccc3[nH]2)c1C` [Serial No. 7, 5-Trifluoromethyl-2-[(4-methoxy-3-methyl-2-pyridylmethyl)thio]-(1H)-benzimidazole], the ED25 ([1]; logarithmic interpolation) was 0.3 mg/kg, the ED50 [1, 3] was 0.5 mg/kg and the “Gastric secretion (rat), inhibition in % of HCl-secretion” value ([1]; dose 0.3 mg/kg p.o.) was 26%. The “Gastric secretion (rat), inhibition in % of HCl-secretion” value ([1]; dose 1.0 mg/kg p.o.) was 85%, the ED25 [2] was ≤ 0.3 mg/kg and the ED50 [2] was 0.5 mg/kg. For the same molecule, the “Protective action on the stomach (rat), reduction in the ulcer index” value ([2]; dose 0.3 mg/kg p.o.) was 30% and the “Protective action on the stomach (rat), reduction in the ulcer index” value ([2]; dose 1.0 mg/kg p.o.) was 94%.
